From patent US10369187B2, “Peptide regulators of JNK family kinases” (Vanderbilt University, priority 2017, dated 2019)

Test system: ASK1-MKK4/7-JNK3 signaling cascade
Experiment: In cell JNK3 activation assay (co-expression with HA-ASK1 and HA-JNK3α2, phospho-JNK Western blot)
Type: cell-based, African green monkey
Conditions: for JNK3 phosphorylation in cells, YFP fusions: YFP fusions co-expressed with JNK3 and ASK1 in COS7 cells
Experimental: COS-7 African green monkey cells were maintained in DMEM supplemented with 10% heat-inactivated FBS (Invitrogen), penicillin, and streptomycin at 37° C. in a humidified incubator with 5% CO2. The cells were plated at 80-90% confluence and transfected using Lipofectamine 2000 (Invitrogen) according to the manufacturer's instructions. Cells were used 48 h post-transfection and serum-starved overnight before experiments.
COS-7 cells were incubated with phosphatase inhibitors (50 mM NaF and 10 mM Na3VO4) in serum-free medium for 15 min at 37° C.; washed with cold PBS; and lysed with SDS lysis buffer containing 1% SDS, 10 mM Tris (pH7.4), 10 mM NaF, 100 μM Na3VO4, 2 mM EDTA, 2 mM benzamidine and 1 mM PMSF. JNKs activity was assayed by Western blotting using an antibody specific for phosphorylated JNK to detect phosphorylated (active) JNKs^17,20,23. Whole cell lysates were boiled for 5 min and centrifuged at 10,000×g for 10 min, and the supernatants were used for Western blotting. Protein was measured using the Bio-Rad Coomassie Blue assay. The proteins were resolved on 8% SD S-PAGE and transferred to PVDF membrane (Millipore, Bedford, Mass.). Blots were incubated with the primary antibodies (Cell Signaling Technology, Inc) anti-phospho-JNK, anti-JNK, anti-HA (6E2) (1:1000 to 1:5000), followed by appropriate HRP-conjugated secondary antibodies. Protein bands were detected by enhanced chemiluminescence (ECL, Pierce), followed by exposure to x-ray film. To quantify phospho-JNKs, serial dilutions of anisomycin (1 μg/ml)-stimulated HEK-A cell lysates were used to ensure that all samples were in linear range. The values for these proteins are expressed in arbitrary units.
The JNK3 activation was next tested in cells (See FIG. 7). COS7 cells were transfected with HA-ASK1, HA-JNK3α2, and YFP-arrestin constructs to measure in cell JNK3α2 activation. Phospho-JNK3 is shown as the uppermost band in the Western analysis, and was analyzed by densitometric quantification using Quantity One software (quantification in bottom panel). […] The data were statistically analyzed by ANOVA with protein as the main factor. Significance of the difference from control (p values) is indicated.
In Cell JNK3 Activation Assay COS7 African green monkey cells were sustained in DMEM solution containing 10% heat-inactivated FBS (Invitrogen), penicillin, and streptomycin at 37° C. and 5% CO2. Cells were transfected at 90-100% confluency in 6-well plates with pcDNA3-HA-ASK1 (0.4 ug), pcDNA3-HA-JNK3α2 (0.2 ug), and pcDNA3-Venus arrestin constructs (0.2-0.6 ug) at a 1:2 ratio of DNA:Lipofectamine 2000 (Invitrogen). At 48 hrs post-transfection, the cells were incubated with phosphatase inhibitors (20 mM NaF and 1 mM Na3VO4) in PBS for 15 mins, washed twice with cold PBS, and lysed using 50 mM Tris (pH 7.8), 2 mM EDTA, 250 mM NaCl, 10% Glycerol, 0.5% NP-40, 2 mM benzamide, and 1 mM PMSF. Protein concentration was measured using the Bio-Rad Quick Start™ Bovine Serum Albumin (BSA) Standard Set. The proteins were subjected to 10% SDS-PAGE and transferred to PVDF membrane (Millipore, Bedford, Mass.). Membranes were incubated with respective primary antibodies (Cell Signaling Technology, Inc.) anti-ASK1 (#3762S), anti-phospho-JNK (#9251), anti-SAPK/JNK (#9252P), anti-GST (#2625), or anti-HA (#3724), followed by the appropriate HRP-conjugated secondary antibodies. Bands were detected by x-ray film using enhanced chemiluminescence (ECL, Pierce) and quantification was done using the software Quantity One (BioRad).

Row | Substance | JNK3 phosphorylation in cells, YFP fusions | in cell JNK3α2 activation (phospho-JNK3 densitometry) (Example 2, YFP/Venus constructs with HA-ASK1, HA-JNK3α2 in COS7 cells) | effect on JNK3 phosphorylation compared with full-length arrestin-3 (YFP fusion co-expressed with JNK3 and ASK1 in COS7 cells) | dose-response curve of JNK3 phosphorylation (varying amounts of YFP-T1A with ASK1 and JNK3)
1 | MGDK-GTRVFKKASPNGKLTVYLGK (MGDKGTRVFKKASPNGKLTVYLGK; N-terminal MGDK; bovine) [B1A, homologous N-terminal peptide from arrestin-2, negative control] | does not function as a scaffold of ASK1-MKK4/7-JNK3 cascade in cells | – | – | –
2 | MGEKPGTRVFKKSSPNCKLTVYLGK (bovine) [T1A, first 25 residues of arrestin-3] | also active | facilitates JNK3 activation | greater than that of full-length arrestin-3 | biphasic, with a clear optimum
